How the values were obtained:
OVCAR-3 = test: Tested for cytotoxicity against OVCAR-3 (ovarian cancer) cell line.; assay type: functional, Homo sapiens
Tubulin = Tubulin (Bos taurus, UniProt Q6B856+Q862F3); test: In vitro inhibition of bovine electrophoretically homogeneous tubulin polymerization.; assay type: functional
CAKI-1 = test: Tested for cytotoxicity against CAKI-1 renal cancer; assay type: functional, Homo sapiens
HL-60 = test: Tested for cytotoxicity against human cancer cell lines HL-60(TB) (leukemia) cell line.; assay type: functional
DMS-273 = test: Tested for cytotoxicity against DMS 273 (small-cell lung cancer) cell line.; assay type: functional, Homo sapiens
NCI-H522 = test: Tested for cytotoxicity against NCI-H522 (non-small-cell lung cancer) cell line.; assay type: functional, Homo sapiens
COLO 205 = test: Tested for cytotoxicity against COLO 205 (colon cancer) cell line.; assay type: functional, Homo sapiens
M14 = test: Tested for cytotoxicity against M14 melanoma; assay type: functional, Homo sapiens
SF-295 = test: In vitro cytotoxicity against SF-295 (CNS cancer) cell line.; assay type: functional, Homo sapiens

Chain of Tubulin (Q6B856 whole entry): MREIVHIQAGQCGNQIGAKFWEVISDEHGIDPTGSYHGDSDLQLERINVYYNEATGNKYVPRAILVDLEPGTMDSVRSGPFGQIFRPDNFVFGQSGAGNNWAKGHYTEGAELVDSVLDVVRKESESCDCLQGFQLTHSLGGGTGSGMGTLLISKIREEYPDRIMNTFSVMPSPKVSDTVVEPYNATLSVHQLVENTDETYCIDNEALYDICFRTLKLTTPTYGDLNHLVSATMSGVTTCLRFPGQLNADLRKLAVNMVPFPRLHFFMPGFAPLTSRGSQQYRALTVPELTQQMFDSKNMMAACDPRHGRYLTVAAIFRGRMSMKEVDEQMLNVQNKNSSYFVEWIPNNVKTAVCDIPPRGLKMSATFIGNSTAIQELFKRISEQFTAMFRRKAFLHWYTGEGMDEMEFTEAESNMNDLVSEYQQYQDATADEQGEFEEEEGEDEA
Chain of Tubulin (Q862F3 whole entry): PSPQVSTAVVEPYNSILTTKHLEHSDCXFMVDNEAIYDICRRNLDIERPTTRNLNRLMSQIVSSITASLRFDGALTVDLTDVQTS

Question: How did the GI50 (OVCAR-3) turn out when `CCOc1ccc(NCc2cc(OC)c(OC)c(OC)c2)cc1` [listing 1 of 2 here] was run?
Answer: 464 nM

Question: What about the IC50 (Tubulin) of the same compound?
Answer: 11000 nM

Question: And the GI50 (CAKI-1)?
Answer: 1050 nM

Question: And the GI50 (HL-60)?
Answer: 448 nM

Question: What about the GI50 (DMS-273) of the same compound?
Answer: 961 nM

Question: What about the GI50 (NCI-H522) of the same compound?
Answer: 574 nM

Question: And the GI50 (COLO 205)?
Answer: 538 nM

Question: And the GI50 (M14)?
Answer: 532 nM

Question: And the GI50 (SF-295)?
Answer: 418 nM

Question: Which GI50 (OVCAR-3; Homo sapiens, OVCAR-3) does the source give for `CCOc1ccc(NCc2cc(OC)c(OC)c(OC)c2)cc1` [listing 2 of 2 here] here?
Answer: 340 nM

Question: And the IC50 (Tubulin)?
Answer: 12000 nM

Question: And the GI50 (CAKI-1; Homo sapiens, CAKI-1)?
Answer: 2040 nM

Question: And the GI50 (HL-60; Homo sapiens, HL-60)?
Answer: 296 nM

Question: What about the GI50 (DMS-273) of the same compound?
Answer: 296 nM

Question: And the GI50 (NCI-H522; Homo sapiens, NCI-H522)?
Answer: 380 nM

Question: And the GI50 (COLO 205; Homo sapiens, COLO 205)?
Answer: 432 nM

Question: And the GI50 (M14; Homo sapiens, M14)?
Answer: 403 nM

Question: And the GI50 (SF-295; Homo sapiens, SF-295)?
Answer: 274 nM

Question: How did the IC50 (Tubulin) turn out when `COc1ccc(/C=C\c2cc(OC)c(OC)c(OC)c2)cc1` was run?
Answer: 2000 nM

Question: How did the IC50 (Tubulin) turn out when `COc1cc(CNc2ccc(C(C)C)cc2)cc(OC)c1OC` was run?
Answer: > 40000 nM

Question: What about the GI50 (DMS-273; Homo sapiens, DMS-273) of the same compound?
Answer: 12900 nM

Question: How did the GI50 (OVCAR-3) turn out when `COc1ccc(NCc2cc(OC)c(OC)c(OC)c2)cc1` was run?
Answer: 363 nM

Question: What about the IC50 (Tubulin) of the same compound?
Answer: 4600 nM

Question: And the GI50 (CAKI-1)?
Answer: 458 nM

Question: And the GI50 (HL-60)?
Answer: 115 nM

Question: And the GI50 (DMS-273)?
Answer: 141 nM

Question: What about the GI50 (NCI-H522) of the same compound?
Answer: 412 nM

Question: What about the GI50 (COLO 205) of the same compound?
Answer: 235 nM

Question: And the GI50 (SF-295)?
Answer: 266 nM

Question: What does the source list for `CCc1ccc(/N=C/c2cc(OC)c(OC)c(OC)c2)cc1`?
Answer: GI50 (OVCAR-3; Homo sapiens, OVCAR-3): > 100000 nM; IC50 (Tubulin): > 40000 nM; GI50 (CAKI-1; Homo sapiens, CAKI-1): > 100000 nM; GI50 (DMS-273; Homo sapiens, DMS-273): > 100000 nM; GI50 (NCI-H522; Homo sapiens, NCI-H522): > 100000 nM; GI50 (M14; Homo sapiens, M14): > 100000 nM; GI50 (SF-295; Homo sapiens, SF-295): > 100000 nM

Question: For `CCCc1ccc(NCc2cc(OC)c(OC)c(OC)c2)cc1`, which IC50 (Tubulin) is on record?
Answer: > 40000 nM

Question: And the GI50 (DMS-273; Homo sapiens, DMS-273)?
Answer: 16200 nM

Question: Which GI50 (OVCAR-3; Homo sapiens, OVCAR-3) does the source give for `COc1cc(CNc2ccc(C)cc2)cc(OC)c1OC` here?
Answer: 184 nM

Question: And the IC50 (Tubulin)?
Answer: 6000 nM

Question: And the GI50 (CAKI-1; Homo sapiens, CAKI-1)?
Answer: 192 nM

Question: What about the GI50 (HL-60) of the same compound?
Answer: 122 nM

Question: What about the GI50 (DMS-273; Homo sapiens, DMS-273) of the same compound?
Answer: 92.6 nM

Question: And the GI50 (COLO 205; Homo sapiens, COLO 205)?
Answer: 152 nM

Question: And the GI50 (M14; Homo sapiens, M14)?
Answer: 150 nM

Question: And the GI50 (SF-295; Homo sapiens, SF-295)?
Answer: 163 nM

Question: What does the source list for `CCCc1ccc(/N=C/c2cc(OC)c(OC)c(OC)c2)cc1`?
Answer: GI50 (OVCAR-3; Homo sapiens, OVCAR-3): > 100000 nM; IC50 (Tubulin): > 40000 nM; GI50 (CAKI-1; Homo sapiens, CAKI-1): > 100000 nM; GI50 (HL-60; Homo sapiens, HL-60): 22600 nM; GI50 (DMS-273; Homo sapiens, DMS-273): > 100000 nM; GI50 (NCI-H522; Homo sapiens, NCI-H522): > 100000 nM; GI50 (COLO 205; Homo sapiens, COLO 205): > 100000 nM; GI50 (M14; Homo sapiens, M14): > 100000 nM; GI50 (SF-295; Homo sapiens, SF-295): > 100000 nM
